Source: patent US9499485B2, “Compounds that are S1P modulating agents and/or ATX modulating agents” (BIOGEN MA INC., priority 2012, dated 2016)
pIC50: −log10 of the molar value.

Each molecule was assayed against T1, Human ATX protein (Homo sapiens, UniProt Q13822) (assay: ATX biochemical FRET assay with FS-3 substrate). Conditions: FS-3 2 μM, ATX 1.0 μg/mL, binned table, read-out: IC50 (μm).
T1 construct: made in house
Excerpt: ATX (Autotaxin) is a 125 KDa glycoprotein with lysophospholipase D (LPLD) activity that generates the bioactive lipid lysophosphatidic acid (LPA) from lysophosphatidylcholine (LPC). The ATX biochemical assay utilizes a FRET (fluorescence resonance energy transfer) technology platform. The fluorescence signal of FRET substrate FS-3 is quenched due to intra-molecular FRET of a fluorophore to a non-fluorescing quencher (Ferguson, C. G., et al., Org. Lett. 2006 May 11; 8(10): 2023-2026, which is incorporated by reference in its entirety). ATX catalyzes the hydrolysis of the substrate which separates the dabsyl quencher from the fluorescein reporter, which becomes fluorescent. The reaction is monitored by a SpectraMax M5 (Molecular Devices, Sunnyvale, Calif.) with at excitation wavelength 485 nm and emission wavelength 535 nm.
2×ATX assay buffer: 100 mM Tris, 280 mM NaCl, 10 mM KCl, 2 mM CaCl2, 2 mM MgCl2, pH 7.4.
Human ATX protein: expressed and purified in house. Stored at −80° C.
Substrate FS-3 (Echelon, L-2000): 100 μg in 77.74 μL H2O (1 mM stock), stored at −20° C.
Compound dilution—All compounds were provided at 10 mM in 100% DMSO. In the first well, 2 μL of 10 mM compound was added to 78 μL of DMSO (1:40 dilution). In subsequent wells 3-fold dilution (total 10 dilutions) were performed.
1×ATX assay buffer was made up with a final concentration of 1 mg/mL fatty acid free-BSA using 2×ATX assay buffer, 10 mg/ml fatty acid free-BSA and ddH2O.
ATX protein was diluted with 1×ATX assay buffer to a concentration of 1.32 μg/mL (1.32×). 38 μL was added per well to the assay plate. The final concentration of ATX in the reaction as 1.0 μg/mL.
2 μL per well of compounds was transferred to provide the desired concentration. The plate was centrifuged, then incubated at room temperature for 30 minutes on the shaker.
FS-3 was diluted with 1×ATX assay buffer to a concentration of FS-3 of 10 μM (5×). Then, 10 μL was added per well to the assay plate. The final concentration of FS-3 in the reaction was 2 μM. The plate was centrifuged. The plate was kept shaking at room temperature for 2 hours. Because FS-3 substrate is light sensitive, plates were kept covered and protected from light.
Fluorescence was measured using SpectraMax M5 (excitation at 485 nm/emission at 538 nm, top read).

Row | Compound | pIC50
1 | O=C(O)C[C@H]1CCCN(Cc2cccc3c(C(F)(F)F)c(O[C@H]4CC[C@@H](C(F)(F)F)CC4)ccc23)C1 [Example 14, 2-((R)-1-((5-(trifluoromethyl)-6-((cis-4-(trifluoromethyl)cyclohexyl)oxy)naphthalen-1-yl)methyl)piperidin-3-yl)acetic acid] | > 6.30
2 | C[C@H]1CC[C@@H](Oc2ccc3cccc(CN4CCC[C@H](CC(=O)O)C4)c3c2C(F)(F)F)CC1 [Example 24, 2-((R)-1-((7-((cis-4-methylcyclohexyl)oxy)-8-(trifluoromethyl)naphthalen-1-yl)methyl)piperidin-3-yl)acetic acid] | 5.30 to 6.30
3 | O=C(O)C1CCN(Cc2cccc3c(C(F)(F)F)c(O[C@H]4CC[C@@H](C(F)(F)F)CC4)ccc23)CC1 [Example 11, 1-((5-(trifluoromethyl)-6-((cis-4-(trifluoromethyl)cyclohexyl)oxy)naphthalen-1-yl)methyl)piperidine-4-carboxylic acid] | 5.30 to 6.30
4 | O=C(O)CCNCc1cccc2c(C(F)(F)F)c(O[C@H]3CC[C@@H](C(F)(F)F)CC3)ccc12 [Example 17, 3-(((5-(trifluoromethyl)-6-((cis-4-(trifluoromethyl)cyclohexyl)oxy)naphthalen-1-yl)methyl)amino)propanoic acid] | 5.30 to 6.30
5 | C[C@H]1CC[C@@H](Oc2ccc3cccc(CN4CCC(C(=O)O)CC4)c3c2C(F)(F)F)CC1 [Example 21, 1-((7-((cis-4-methylcyclohexyl)oxy)-8-(trifluoromethyl)naphthalen-1-yl)methyl)piperidine-4-carboxylic acid] | 5.30 to 6.30
6 | O=C(O)CCCCNCc1cccc2c(C(F)(F)F)c(O[C@H]3CC[C@@H](C(F)(F)F)CC3)ccc12 [Example 19, 5-(((5-(trifluoromethyl)-6-((cis-4-(trifluoromethyl)cyclohexyl)oxy)naphthalen-1-yl)methyl)amino)pentanoic acid] | 5.30 to 6.30
7 | O=C(O)CNCc1cccc2c(C(F)(F)F)c(O[C@H]3CC[C@@H](C(F)(F)F)CC3)ccc12 [Example 16, 2-(((5-(trifluoromethyl)-6-((cis-4-(trifluoromethyl)cyclohexyl)oxy)naphthalen-1-yl)methyl)amino)acetic acid] | 5.30 to 6.30
8 | O=C(O)C1CC2CCCC(C1)N2Cc1cccc2ccc(O[C@H]3CC[C@@H](C(F)(F)F)CC3)c(C(F)(F)F)c12 (stereo partly drawn) [Example 27, 9-((8-(trifluoromethyl)-7-((cis-4-(trifluoromethyl)cyclohexyl)oxy)naphthalen-1-yl)methyl)-9-azabicyclo[3.3.1]nonane-3-carboxylic acid] | 5.30 to 6.30
9 | C[C@H]1CC[C@@H](Oc2ccc3c(CNCCCCC(=O)O)cccc3c2C(F)(F)F)CC1 [Example 9, 5-(((6-((cis-4-methylcyclohexyl)oxy)-5-(trifluoromethyl)naphthalen-1-yl)methyl)amino)pentanoic acid] | 5.30 to 6.30
10 | O=C(O)C1CC2CCCC(C1)N2Cc1cccc2c(C(F)(F)F)c(O[C@H]3CC[C@@H](C(F)(F)F)CC3)ccc12 (stereo partly drawn) [Example 13, 9-((5-(trifluoromethyl)-6-((cis-4-(trifluoromethyl)cyclohexyl)oxy)naphthalen-1-yl)methyl)-9-azabicyclo[3.3.1]nonane-3-carboxylic acid] | 5.30 to 6.30
11 | C[C@H]1CC[C@@H](Oc2ccc3c(CN4C5CCC4CC(C(=O)O)C5)cccc3c2C(F)(F)F)CC1 (stereo partly drawn) [Example 2, 8-((6-((cis-4-methylcyclohexyl)oxy)-5-(trifluoromethyl)naphthalen-1-yl)methyl)-8-azabicyclo[3.2.1]octane-3-carboxylic acid] | 5.30 to 6.30
12 | C[C@H]1CC[C@@H](Oc2ccc3c(CNCCCC(=O)O)cccc3c2C(F)(F)F)CC1 [Example 8, 4-(((6-((cis-4-methylcyclohexyl)oxy)-5-(trifluoromethyl)naphthalen-1-yl)methyl)amino)butanoic acid] | > 6.30
13 | C[C@H]1CC[C@@H](Oc2ccc3c(CN4CCC[C@H](CC(=O)O)C4)cccc3c2C(F)(F)F)CC1 [Example 4, 2-((R)-1-((6-((cis-4-methylcyclohexyl)oxy)-5-(trifluoromethyl)naphthalen-1-yl)methyl)piperidin-3-yl)acetic acid] | > 6.30
14 | C[C@H]1CC[C@@H](Oc2ccc3cccc(CN4C5CCC4CC(C(=O)O)C5)c3c2C(F)(F)F)CC1 (stereo partly drawn) [Example 22, 8-((7-((cis-4-methylcyclohexyl)oxy)-8-(trifluoromethyl)naphthalen-1-yl)methyl)-8-azabicyclo[3.2.1]octane-3-carboxylic acid] | > 6.30
15 | O=C(O)C1CC2CCC(C1)N2Cc1cccc2ccc(O[C@H]3CC[C@@H](C(F)(F)F)CC3)c(C(F)(F)F)c12 (stereo partly drawn) [Example 26, 8-((8-(trifluoromethyl)-7-((cis-4-(trifluoromethyl)cyclohexyl)oxy)naphthalen-1-yl)methyl)-8-azabicyclo[3.2.1]octane-3-carboxylic acid] | 5.30 to 6.30
16 | C[C@H]1CC[C@@H](Oc2ccc3c(CN4CCC(C(=O)O)CC4)cccc3c2C(F)(F)F)CC1 [Example 1, 1-((6-((cis-4-methylcyclohexyl)oxy)-5-(trifluoromethyl)naphthalen-1-yl)methyl)piperidine-4-carboxylic acid] | 5.30 to 6.30
17 | O=C(O)CCCCCNCc1cccc2c(C(F)(F)F)c(O[C@H]3CC[C@@H](C(F)(F)F)CC3)ccc12 [Example 20, 6-(((5-(trifluoromethyl)-6-((cis-4-(trifluoromethyl)cyclohexyl)oxy)naphthalen-1-yl)methyl)amino)hexanoic acid] | > 6.30
18 | C[C@H]1CC[C@@H](Oc2ccc3c(CNC4(C(=O)O)CCCCC4)cccc3c2C(F)(F)F)CC1 [Example 5, 1-(((6-((cis-4-methylcyclohexyl)oxy)-5-(trifluoromethyl)naphthalen-1-yl)methyl)amino)cyclohexanecarboxylic acid] | < 5.30
19 | C[C@H]1CC[C@@H](Oc2ccc3c(CNCCCCCC(=O)O)cccc3c2C(F)(F)F)CC1 [Example 10, 6-(((6-((cis-4-methylcyclohexyl)oxy)-5-(trifluoromethyl)naphthalen-1-yl)methyl)amino)hexanoic acid] | > 6.30
20 | O=C(O)CCCNCc1cccc2c(C(F)(F)F)c(O[C@H]3CC[C@@H](C(F)(F)F)CC3)ccc12 [Example 18, 4-(((5-(trifluoromethyl)-6-((cis-4-(trifluoromethyl)cyclohexyl)oxy)naphthalen-1-yl)methyl)amino)butanoic acid] | > 6.30
21 | C[C@H]1CC[C@@H](Oc2ccc3cccc(CN4C5CCCC4CC(C(=O)O)C5)c3c2C(F)(F)F)CC1 (stereo partly drawn) [Example 23, 9-((7-((cis-4-methylcyclohexyl)oxy)-8-(trifluoromethyl)naphthalen-1-yl)methyl)-9-azabicyclo[3.3.1]nonane-3-carboxylic acid] | 5.30 to 6.30
22 | C[C@H]1CC[C@@H](Oc2ccc3c(CNCC(=O)O)cccc3c2C(F)(F)F)CC1 [Example 6, 2-(((6-((cis-4-methylcyclohexyl)oxy)-5-(trifluoromethyl)naphthalen-1-yl)methyl)amino)acetic acid] | 5.30 to 6.30
23 | O=C(O)C[C@H]1CCCN(Cc2cccc3ccc(O[C@H]4CC[C@@H](C(F)(F)F)CC4)c(C(F)(F)F)c23)C1 [Example 28, 2-((R)-1-((8-(trifluoromethyl)-7-((cis-4-(trifluoromethyl)cyclohexyl)oxy)naphthalen-1-yl)methyl)piperidin-3-yl)acetic acid] | 5.30 to 6.30
24 | O=C(O)C1CCN(Cc2cccc3ccc(O[C@H]4CC[C@@H](C(F)(F)F)CC4)c(C(F)(F)F)c23)CC1 [Example 25, 1-((8-(trifluoromethyl)-7-((cis-4-(trifluoromethyl)cyclohexyl)oxy)naphthalen-1-yl)methyl)piperidine-4-carboxylic acid] | 5.30 to 6.30
25 | C[C@H]1CC[C@@H](Oc2ccc3c(CNCCC(=O)O)cccc3c2C(F)(F)F)CC1 [Example 7, 3-(((6-((cis-4-methylcyclohexyl)oxy)-5-(trifluoromethyl)naphthalen-1-yl)methyl)amino)propanoic acid] | > 6.30
26 | C[C@H]1CC[C@@H](Oc2ccc3c(CN4C5CCCC4CC(C(=O)O)C5)cccc3c2C(F)(F)F)CC1 (stereo partly drawn) [Example 3, 9-((6-((cis-4-methylcyclohexyl)oxy)-5-(trifluoromethyl)naphthalen-1-yl)methyl)-9-azabicyclo[3.3.1]nonane-3-carboxylic acid] | 5.30 to 6.30

Same assay, conditions: FS-3 2 μM, ATX 1.0 μg/mL, read-out: ATX IC50

Row | Compound | pIC50
27 | O=C(O)C[C@H]1CCCN(Cc2cccc3c(C(F)(F)F)c(O[C@H]4CC[C@@H](C(F)(F)F)CC4)ccc23)C1 [Example 14, 2-((R)-1-((5-(trifluoromethyl)-6-((cis-4-(trifluoromethyl)cyclohexyl)oxy)naphthalen-1-yl)methyl)piperidin-3-yl)acetic acid] | ≥ 6.60
28 | C[C@H]1CC[C@@H](Oc2ccc3c(CN4CCC[C@H](CC(=O)O)C4)cccc3c2C(F)(F)F)CC1 [Example 4, 2-((R)-1-((6-((cis-4-methylcyclohexyl)oxy)-5-(trifluoromethyl)naphthalen-1-yl)methyl)piperidin-3-yl)acetic acid] | ≥ 6.60
29 | C[C@H]1CC[C@@H](Oc2ccc3cccc(CN4C5CCC4CC(C(=O)O)C5)c3c2C(F)(F)F)CC1 (stereo partly drawn) [Example 22, 8-((7-((cis-4-methylcyclohexyl)oxy)-8-(trifluoromethyl)naphthalen-1-yl)methyl)-8-azabicyclo[3.2.1]octane-3-carboxylic acid] | ≥ 6.60
30 | O=C(O)CCCCCNCc1cccc2c(C(F)(F)F)c(O[C@H]3CC[C@@H](C(F)(F)F)CC3)ccc12 [Example 20, 6-(((5-(trifluoromethyl)-6-((cis-4-(trifluoromethyl)cyclohexyl)oxy)naphthalen-1-yl)methyl)amino)hexanoic acid] | ≥ 6.60
31 | C[C@H]1CC[C@@H](Oc2ccc3c(CNCCCCCC(=O)O)cccc3c2C(F)(F)F)CC1 [Example 10, 6-(((6-((cis-4-methylcyclohexyl)oxy)-5-(trifluoromethyl)naphthalen-1-yl)methyl)amino)hexanoic acid] | ≥ 6.60
